Test results taken from patent publication US6387909B1, “Thienopyranecarboxamide derivatives” (Recordati S.A. Chemical and Pharmaceutical Company, priority 1999, dated 2002).

Legend:
[1] = target: T1, human 5-HT1A-serotoninergic receptor (Homo sapiens, UniProt P08908); assay: Radioligand binding ([3H]8-OH-DPAT) to cloned 5-HT1A receptor in HeLa cell membranes; settings: read-out: Affinity (Ki) 5-HT1A
T1 construct: expressed in transfected cells; host or cells: HeLa
T1 sequence (P08908 1-422): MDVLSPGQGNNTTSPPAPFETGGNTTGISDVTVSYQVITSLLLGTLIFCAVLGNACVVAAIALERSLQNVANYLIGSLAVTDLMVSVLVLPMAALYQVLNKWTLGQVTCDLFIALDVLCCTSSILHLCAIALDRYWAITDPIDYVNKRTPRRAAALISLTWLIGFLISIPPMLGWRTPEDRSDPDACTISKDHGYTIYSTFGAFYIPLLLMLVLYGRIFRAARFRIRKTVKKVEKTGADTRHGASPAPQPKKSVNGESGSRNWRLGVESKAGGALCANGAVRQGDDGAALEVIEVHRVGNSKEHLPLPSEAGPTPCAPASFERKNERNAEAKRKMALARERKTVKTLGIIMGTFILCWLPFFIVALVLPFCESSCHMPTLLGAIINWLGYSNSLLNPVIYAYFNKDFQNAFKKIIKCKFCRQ
Experimental: HeLa cells were grown as monolayers in Dulbecco's modified Eagle's medium (DMEM), supplemented with 10% fetal calf serum and gentamicin (100 μg/mL), at 37° C. in 5% CO2. The cells were detached from the growth flask at 95% confluence by a cell scraper and were lysed in a buffer containing ice cold 5 mM Tris, 5 mM EDTA (pH 7.4). The homogenates were centrifuged at 40,000×g for 20 minutes and the membranes were resuspended in a small volume of ice-cold buffer containing 5 mM Tris and 5 mM, EDTA (pH 7.4), and immediately frozen and stored at −70° C. until use.
Non-specific binding was determined in the presence of 10 μM 5-HT. Incubation was stopped by addition of ice-cold Tris buffer and rapid filtration through Schleicher & Schuell GF52 filters that had been pretreated with 0.2%-polyethyleneimine.
(§1) Data were expressed as mean of Ki.

[2] = target: T2, recombinant α1a-adrenoceptor (Homo sapiens, UniProt P35348); assay: Radioligand binding ([3H]prazosin) to cloned α1a adrenoceptor; settings: read-out: Affinity (Ki) α1a
T2 construct: expressed in transfected cells
T2 sequence (P35348 1-466): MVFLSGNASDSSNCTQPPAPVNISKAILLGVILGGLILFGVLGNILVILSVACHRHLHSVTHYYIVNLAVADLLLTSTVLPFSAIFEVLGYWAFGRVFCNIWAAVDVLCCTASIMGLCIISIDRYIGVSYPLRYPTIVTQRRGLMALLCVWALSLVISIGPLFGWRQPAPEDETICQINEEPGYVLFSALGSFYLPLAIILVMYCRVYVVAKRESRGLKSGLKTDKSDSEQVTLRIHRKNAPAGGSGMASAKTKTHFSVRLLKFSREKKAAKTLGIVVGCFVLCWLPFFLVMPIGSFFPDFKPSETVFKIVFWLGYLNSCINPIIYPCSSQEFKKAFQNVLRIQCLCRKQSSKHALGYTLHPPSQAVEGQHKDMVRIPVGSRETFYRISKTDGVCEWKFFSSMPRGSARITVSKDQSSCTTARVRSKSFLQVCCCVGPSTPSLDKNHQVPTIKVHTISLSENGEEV
Experimental: (§2) Determination of affinity for cloned subtypes of the α1-adrenoceptor was performed in membranes from cells transfected by electroporation with DNA expressing the genes encoding each α1-adrenoceptor subtype.
(§3) Non-specific binding was determined in the presence of 10 μM phentolamine. Incubation was stopped by addition of ice-cold Tris buffer and rapid filtration through Schleicher & Schuell GF52 filters that had been pretreated with 0.2%-polyethyleneimine.
as §1

[3] = target: T3, recombinant α1d-adrenoceptor (Homo sapiens, UniProt P25100); assay: Radioligand binding ([3H]prazosin) to cloned α1d adrenoceptor; settings: read-out: Affinity (Ki) α1d
T3 construct: expressed in transfected cells
T3 sequence (P25100 1-572): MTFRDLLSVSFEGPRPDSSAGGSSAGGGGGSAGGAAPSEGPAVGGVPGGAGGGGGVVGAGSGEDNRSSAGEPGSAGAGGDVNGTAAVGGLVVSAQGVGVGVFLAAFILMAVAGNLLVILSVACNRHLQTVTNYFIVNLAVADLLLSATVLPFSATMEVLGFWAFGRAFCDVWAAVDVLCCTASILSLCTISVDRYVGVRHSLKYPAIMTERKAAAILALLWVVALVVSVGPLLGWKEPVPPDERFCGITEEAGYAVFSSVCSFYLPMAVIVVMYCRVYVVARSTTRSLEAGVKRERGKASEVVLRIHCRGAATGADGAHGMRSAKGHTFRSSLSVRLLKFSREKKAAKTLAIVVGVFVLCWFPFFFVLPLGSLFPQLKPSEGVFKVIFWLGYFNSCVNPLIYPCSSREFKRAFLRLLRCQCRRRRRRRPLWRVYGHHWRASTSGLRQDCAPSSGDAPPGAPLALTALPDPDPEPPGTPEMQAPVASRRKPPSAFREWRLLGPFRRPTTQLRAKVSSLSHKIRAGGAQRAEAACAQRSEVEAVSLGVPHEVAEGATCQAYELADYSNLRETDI
Experimental: as §2, §3, §1

| Ki [1] | Ki [2] | Ki [3] | Structure (SMILES) |
| --- | --- | --- | --- |
| 7.59 nM | 0.045 nM | 1.01 nM | O=C(NCCCN1CCN(c2ccccc2OCC(F)(F)F)CC1)c1csc2c(=O)cc(-c3ccccc3)oc12 [Example 5, 7-Oxo-5-phenyl-N-{3-[4-[2-(2,2,2-trifluoroethoxy)phenyl]-1-piperazinyl]propyl}-7H-thieno[3,2-b]pyran-3-carboxamide] |
| 4.48 nM | 0.1 nM | 2.46 nM | COc1ccccc1N1CCN(CCCNC(=O)c2csc3c(=O)cc(-c4ccccc4)oc23)CC1 [Example 2, N-{3-[4-(2-Methoxyphenyl)-1-piperazinyl]propyl}-7-oxo-5-phenyl-7H-thieno[3,2-b]pyran-3-carboxamide] |
